Test systems include MOLT-4; OVCAR-4; NCI-H460; A549; BT-549; LOX IMVI; NCI-H522; HT-29; OVCAR-8; NCI-H23; M14; HCC 2998; 786-0; TK-10; MDA-N; HCT-116; Malme-3M; U-251; SK-MEL-28; A498.
What all share (experiment): inhibition of tumour cell growth, NCI panel, 48 h

Structures are written as SMILES.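 The compound was tested at five concentrations on cells cultured in 96-well plates, with a 48-hour exposure period. GI50 marks 50% less growth.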 Active and inactive are the calls of the source. Cut-off read from the data, not from the text of the source: active = GI50 up to about 1.1 µM and inactive = higher.

For the compound `CC(=O)O[C@H]1CCn2c3c(c(C)c21)C(=O)C(N1CC1)=C(C)C3=O`, the GI50 was > 10 µM (inactive) in the assay with MOLT-4; > 10 µM (inactive) with OVCAR-4; 3.52 µM (inactive) in the assay with NCI-H460; 3.19 µM (inactive) in the assay with A549; > 10 µM (inactive) with BT-549; > 10 µM (inactive) in the assay on LOX IMVI. Also, the GI50 with NCI-H522 was > 10 µM (inactive); in the assay on HT-29 it was 2.84 µM (inactive); in the assay on OVCAR-8, > 10 µM (inactive); in the assay with NCI-H23, 1.68 µM (inactive); with M14 it was > 10 µM (inactive); in the assay on HCC 2998, > 10 µM (inactive). Also, the GI50 in the assay on 786-0, in the assay with TK-10, with MDA-N, in the assay with HCT-116, in the assay on Malme-3M and with U-251 was > 10 µM (inactive) in each case.
As to `NC(=O)c1cnc2sc3ccccc3n2c1=O`, the GI50 in the assay with MOLT-4 is > 100 µM (inactive); in the assay with OVCAR-4 it was > 100 µM (inactive); with NCI-H460, > 100 µM (inactive); in the assay with A549 it was 67.9 µM (inactive); with BT-549, > 100 µM (inactive); in the assay on LOX IMVI, > 100 µM (inactive). Moreover, the GI50 in the assay on NCI-H522 was 74 µM (inactive); with HT-29, > 100 µM (inactive); with OVCAR-8, > 100 µM (inactive); in the assay with M14, > 100 µM (inactive); with HCC 2998, > 100 µM (inactive); with 786-0, > 100 µM (inactive). For the same compound, the GI50 in the assay on TK-10, in the assay on MDA-N, with HCT-116, with Malme-3M and in the assay on SK-MEL-28 was > 100 µM (inactive) in each case.
For the compound `CC1=C(Br)C(=O)C(C)=C(Br)C1=O.Cc1c(O)c(Br)c(C)c(O)c1Br`, the GI50 with MOLT-4 was 0.783 µM (active); in the assay with OVCAR-4, 1.79 µM (inactive); in the assay with NCI-H460, 6.71 µM (inactive); in the assay with A549 it was 18.3 µM (inactive); in the assay on BT-549 it was 5.33 µM (inactive); with LOX IMVI it was 1.87 µM (inactive). The GI50 in the assay with NCI-H522 is 1.99 µM (inactive); in the assay with HT-29, 2.07 µM (inactive); in the assay on A498, 15.3 µM (inactive); in the assay with OVCAR-8, 1.93 µM (inactive); in the assay with NCI-H23 it was 2.21 µM (inactive); with M14 it was 1.67 µM (inactive). For the same compound, the GI50 in the assay with 786-0 was 1.77 µM (inactive); in the assay on TK-10 it was 1.64 µM (inactive); in the assay with MDA-N, 1.81 µM (inactive); with HCT-116, 1.69 µM (inactive); in the assay on Malme-3M, 2.1 µM (inactive); with SK-MEL-28, 1.91 µM (inactive). Besides, in the assay with U-251, the GI50 was 6.47 µM (inactive).
On to `C[N+](C)(C)c1ncnc2c1ncn2C1CCCCO1` (configuration not stated), for which the GI50 in the assay with MOLT-4, with OVCAR-4, with NCI-H460, in the assay on A549, in the assay with BT-549 and in the assay on LOX IMVI was > 100 µM (inactive) each time. Also, the GI50 in the assay on NCI-H522, in the assay on HT-29, in the assay on A498, in the assay with OVCAR-8, in the assay on NCI-H23 and in the assay on M14 was > 100 µM (inactive) in each case. In addition, the GI50 in the assay with 786-0, in the assay with TK-10, in the assay on MDA-N, in the assay on HCT-116, with Malme-3M and in the assay with SK-MEL-28 was > 100 µM (inactive) in each case. For the same compound, the GI50 with U-251 was > 100 µM (inactive).
Consider `Cc1cnc2c(c1)C(=O)N(c1ccc(Oc3ccccc3)cc1)S2(=O)=O`, for which the GI50 in the assay on MOLT-4 was > 100 µM (inactive); in the assay on OVCAR-4, 83.8 µM (inactive); in the assay with NCI-H460 it was > 100 µM (inactive); in the assay with A549, > 100 µM (inactive); with BT-549, > 100 µM (inactive); in the assay with LOX IMVI, > 100 µM (inactive). Besides, the GI50 in the assay on NCI-H522 is 57.7 µM (inactive); with HT-29, > 100 µM (inactive); in the assay with OVCAR-8, > 100 µM (inactive); in the assay on NCI-H23, > 100 µM (inactive); in the assay on M14, > 100 µM (inactive); with HCC 2998, > 100 µM (inactive). The GI50 in the assay on 786-0 is > 100 µM (inactive); in the assay with TK-10, > 100 µM (inactive); in the assay with MDA-N, > 100 µM (inactive); with HCT-116, > 100 µM (inactive); with Malme-3M it was 67.1 µM (inactive); with SK-MEL-28, > 100 µM (inactive). The GI50 with U-251 is > 100 µM (inactive).
Turning to `COC1CC(OC2C(C)OC(OC3C(C)OC(OC4C(C)OC(O[C@H]5CC[C@@]6(C)C(=CC[C@]7(O)[C@@H]6C[C@@H](OC(=O)/C=C/c6ccccc6)[C@@]6(C)[C@]7(O)CC[C@@]6(O)C(C)=O)C5)CC4OC)CC3OC)CC2OC)OC(C)C1O` (some centres not stated), the GI50 in the assay with MOLT-4, with OVCAR-4, in the assay with A549, with BT-549, with LOX IMVI and with NCI-H522 was > 12.5 µM (inactive) each time. Further, the GI50 in the assay on HT-29, in the assay on OVCAR-8, in the assay with NCI-H23, in the assay with M14, with HCC 2998 and in the assay with 786-0 was > 12.5 µM (inactive) each time. In addition, the GI50 in the assay on TK-10, in the assay with MDA-N, in the assay on HCT-116, in the assay with Malme-3M, in the assay on SK-MEL-28 and with U-251 was > 12.5 µM (inactive) each time.
For `CCOC(=O)CC/C(C)=N\n1c(Cc2ccc(Cl)cc2)n[nH]c1=O`, the GI50 is > 100 µM (inactive) in the assay on MOLT-4; 86.1 µM (inactive) with NCI-H460; > 100 µM (inactive) in the assay with A549; > 100 µM (inactive) with BT-549; > 100 µM (inactive) in the assay on LOX IMVI; > 100 µM (inactive) in the assay on NCI-H522. The GI50 with HT-29, with OVCAR-8, in the assay with NCI-H23, with M14, in the assay on HCC 2998 and in the assay with 786-0 was > 100 µM (inactive) each time. In addition, the GI50 in the assay with TK-10, with MDA-N, in the assay with HCT-116, in the assay with Malme-3M, with SK-MEL-28 and in the assay with U-251 was > 100 µM (inactive) each time.
On to `CC(C)CCCC(=O)CCCCCCC(=O)CCN(O)C(=O)C(N)CO` (configuration not stated), for which the GI50 with MOLT-4 was 41.7 µM (inactive); with BT-549, 14.7 µM (inactive); with LOX IMVI, 12.2 µM (inactive); in the assay on HT-29, 18.7 µM (inactive); with A498, 16.3 µM (inactive); with OVCAR-8, 16.9 µM (inactive). In addition, the GI50 with NCI-H23 was 15.1 µM (inactive); with M14, 20.2 µM (inactive); with 786-0 it was 16 µM (inactive); in the assay with TK-10, 14.7 µM (inactive); in the assay on MDA-N, 21.8 µM (inactive); in the assay on HCT-116, 17.7 µM (inactive). Besides, the GI50 was 13.7 µM (inactive) in the assay on Malme-3M, 19.1 µM (inactive) with SK-MEL-28 and 21.8 µM (inactive) in the assay on U-251.
Regarding `OCCNc1nc2c(N3CCCC3)nc(N3CCNCC3)nc2nc1NCc1ccccc1`, the GI50 with MOLT-4 is 16 µM (inactive); in the assay on OVCAR-4, 17.3 µM (inactive); in the assay with NCI-H460, 15.5 µM (inactive); in the assay on A549 it was 17 µM (inactive); with BT-549, 16.4 µM (inactive); in the assay on LOX IMVI, 14.7 µM (inactive). Moreover, the GI50 in the assay with NCI-H522 was 12.7 µM (inactive); in the assay on HT-29 it was 8.15 µM (inactive); in the assay on OVCAR-8, 15.9 µM (inactive); with NCI-H23 it was 18.2 µM (inactive); with M14, 15.7 µM (inactive); in the assay with HCC 2998, 15.2 µM (inactive). Moreover, the GI50 in the assay with 786-0 was 14.8 µM (inactive); in the assay with TK-10, 15 µM (inactive); in the assay on MDA-N, 11.9 µM (inactive); with HCT-116, 10.1 µM (inactive); in the assay on Malme-3M, 19.6 µM (inactive); with SK-MEL-28, 17.5 µM (inactive). Further, the GI50 with U-251 is 11.1 µM (inactive).
Regarding `COC(=O)/C=C/c1cc2c(cc1-c1c(C(=O)O)cc(OC)c(OC)c1OC)OCO2`, the GI50 in the assay with MOLT-4, in the assay on OVCAR-4, in the assay with A549, with BT-549, in the assay with LOX IMVI and in the assay on NCI-H522 was > 10 µM (inactive) throughout. Further, the GI50 in the assay on HT-29, in the assay on OVCAR-8, in the assay with NCI-H23, with M14, in the assay on HCC 2998 and in the assay with 786-0 was > 10 µM (inactive) each time. Further, the GI50 with TK-10, in the assay on MDA-N, with HCT-116, in the assay on Malme-3M, with SK-MEL-28 and in the assay with U-251 was > 10 µM (inactive) throughout.
In the case of `CC(C)(C)[Si](C)(C)OCCCCC1CC2(S(=O)(=O)C3=CC=C=C=C3)ON1CC2S(=O)(=O)c1ccccc1` (configuration not stated), the GI50 with MOLT-4, in the assay with OVCAR-4, in the assay with NCI-H460, in the assay on A549, in the assay with BT-549 and with HT-29 was > 100 µM (inactive) throughout. Besides, the GI50 in the assay on A498, with OVCAR-8, in the assay on NCI-H23, in the assay on M14, in the assay with HCC 2998 and in the assay with 786-0 was > 100 µM (inactive) each time. Moreover, the GI50 in the assay with TK-10, in the assay on MDA-N, with HCT-116, in the assay on SK-MEL-28 and with U-251 was > 100 µM (inactive) each time.

(Values after ChEMBL document CHEMBL1201862, “PubChem BioAssay data set” (2004).)
